Results as given in patent US20110112145A1, “Salts Of Methyl 2-((R))-(3-Chlorophenyl)((R)-1-((S)-2-(Methylamino)-3((R)-tetrahydro-2H-Pyran-3-YL)Propylcarbamoyl)Piperidin-3-YL)Methoxy)Ethylcarbamate” (priority 2008, published 2011).

Tests used:
[1] = Oral bioavailability in Beagle dogs; assay type: in vivo, male Beagle dogs; conditions: Dog
Experimental: Oral pharmacokinetic data in male Beagle dogs was obtained for a solution formulation of Compound D and capsule formulations of Compound A-form I, Compound B-form I, and Compound C-form I. Compound D was administered by oral gavage as a clear, colorless solution in water containing 2% DMSO (final pH=3.5), which was filtered, using a 0.22 μm MILLEX-GV filter, prior to administration. The above noted Compounds A, B, and C were each administered at a dose of 5 mg/kg in gelatin capsules (1.37 mL). Blood (50 μL) was sampled at the following time intervals: 0, 20, 40, 60, 120, 180, 240, 360, 480, 600, and 1440 min.
(§1) The concentration of each compound was quantified by LC/MS/MS analysis of an aliquot (25 μL blood+25 μL water) of these samples and the overall blood exposure reported as the Dose-Normalized Area Under the Curve (DNAUC) from a concentration versus time plot and expressed in the units kilogram hours per liter (kg·h/L). All oral bioavailabilities were calculated by dividing the DNAUC from an oral segment by the DNAUC from an i.v. segment and multiplying by 100.

[2] = Oral bioavailability in Sprague-Dawley rats; assay type: in vivo, male Sprague-Dawley rats; conditions: for DNAUC (Dose-Normalized Area Under the Curve, blood) / Oral Bioavailability (%): Rat; for Oral Bioavailability (%): oral DNAUC / i.v. DNAUC x 100
Experimental: Oral pharmacokinetic data in male Sprague-Dawley rats was obtained for a solution formulation of Compound D and a suspension formulation of micronized Compound E. Compound D was administered by oral gavage as a clear, colorless solution in a formulation with 0.5% methylcellulose in water at a dose of 10 mg/kg (5 mL of dose solution per kg). Blood was sampled at the following time intervals: 0, 5, 15, 30, 60, 120, 180, 240, 360, 480, and 1440 min. Compound E was administered as a suspension by gastric bolus in a formulation with 1% methylcellulose in water at a dose of 5 mg/kg (10 mL of dose solution per kg). Blood (50 μL) was sampled at the following time intervals: 0, 20, 40, 60, 120, 180, 240, 360, 480, 720, 960, 1200, and 1440 min.
as §1

[3] = oral, gelatin capsule, 5 mg/kg, form I of each compound
[4] = oral, gelatin capsule, 5 mg/kg, form I of each compound, oral DNAUC / i.v. DNAUC x 100
[5] = oral gavage, solution in 0.5% methylcellulose in water, 10 mg/kg
[6] = gastric bolus, suspension of micronized compound in 1% methylcellulose in water, 5 mg/kg

Structure (SMILES): CN[C@H](CNC(=O)N1CCC[C@@H]([C@@H](OCCNC(=O)OC)c2cccc(Cl)c2)C1)C[C@H]1CCCOC1.CN[C@H](CNC(=O)N1CCC[C@@H]([C@@H](OCCNC(=O)OC)c2cccc(Cl)c2)C1)C[C@H]1CCCOC1.Cc1ccc(C(=O)O[C@@H](C(=O)O)[C@@H](OC(=O)c2ccc(C)cc2)C(=O)O)cc1 [Compound A]
- DNAUC (Dose-Normalized Area Under the Curve, blood) [1, 3]: 0.38 kg·h/L
- Oral Bioavailability (%) [1, 4]: 35%

Structure (SMILES): CN[C@H](CNC(=O)N1CCC[C@@H]([C@@H](OCCNC(=O)OC)c2cccc(Cl)c2)C1)C[C@H]1CCCOC1.O=C(O)/C=C/C(=O)O [Compound D, methyl 2-((R)-(3-chlorophenyl)((R)-1-((S)-2-(methylamino)-3-((R)-tetrahydro-2H-pyran-3-yl)propylcarbamoyl)piperidin-3-yl)methoxy)ethylcarbamate fumaric acid]
- DNAUC (Dose-Normalized Area Under the Curve, blood) ([1]; oral gavage, solution in water containing 2% DMSO (final pH=3.5), dose not given): 0.46 kg·h/L
- bioavailability ([1]; male, Beagle, whole blood, oral gavage, solution in water containing 2% DMSO (final pH=3.5), dose not given, oral DNAUC / i.v. DNAUC x 100): 43%
- DNAUC (Dose-Normalized Area Under the Curve, blood) [2, 5]: 0.048 kg·h/L
- Oral Bioavailability (%) [2, 5]: 37%

Structure (SMILES): CN[C@H](CNC(=O)N1CCC[C@@H]([C@@H](OCCNC(=O)OC)c2cccc(Cl)c2)C1)C[C@H]1CCCOC1.O=C(O)C(=O)O [Compound C]
- DNAUC (Dose-Normalized Area Under the Curve, blood) [1, 3]: 0.64 kg·h/L
- Oral Bioavailability (%) [1, 4]: 59%

Structure (SMILES): CN[C@H](CNC(=O)N1CCC[C@@H]([C@@H](OCCNC(=O)OC)c2cccc(Cl)c2)C1)C[C@H]1CCCOC1.CN[C@H](CNC(=O)N1CCC[C@@H]([C@@H](OCCNC(=O)OC)c2cccc(Cl)c2)C1)C[C@H]1CCCOC1.O=C(O)c1cc2ccccc2c(Cc2c(O)c(C(=O)O)cc3ccccc23)c1O [Compound E, 2:1 pamoate salt of methyl 2-((R)-(3-chlorophenyl)((R)-1-((S)-2-(methylamino)-3-((R)-tetrahydro-2H-pyran-3-yl)propylcarbamoyl)piperidin-3-yl)methoxy)ethylcarbamate]
- DNAUC (Dose-Normalized Area Under the Curve, blood) [2, 6]: 0.0067 kg·h/L
- Oral Bioavailability (%) [2, 6]: 5%
- in vivo oral bioavailability ([2]; statement in the background section, species not given): low

Structure (SMILES): CC(=O)N[C@@H](Cc1ccccc1)C(=O)O.CN[C@H](CNC(=O)N1CCC[C@@H]([C@@H](OCCNC(=O)OC)c2cccc(Cl)c2)C1)C[C@H]1CCCOC1 [Compound B]
- DNAUC (Dose-Normalized Area Under the Curve, blood) [1, 3]: 0.40 kg·h/L
- Oral Bioavailability (%) [1, 4]: 37%
